Measurements reported in ChEMBL document CHEMBL1201862, “PubChem BioAssay data set” (2004).
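Results reflect a 48-hour exposure of cells in 96-well plates to compound at five concentrations. Here, GI50 denotes the concentration required for 50% inhibition of growth.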 The source made the active and inactive calls. Rule as the data show it: active = GI50 up to about 1.1 µM and inactive = higher. Square brackets hold non-standard residues; d marks the D form. Peptide text beside a SMILES is read from it. * marks the point of attachment. ξ: configuration not given here. ξD = NC(CC(=O)O)C(=O)O; Ac3c = NC1(C(=O)O)CC1; Boc = CC(C)(C)OC(=O)*; OtBu = CC(C)(C)O*

How the values were obtained:
Test in all cases: DTP human tumour cell line panel, 48 h
COLO 205 = system: COLO 205
HCT-15 = system: HCT-15
MCF7 = system: MCF7
CAKI-1 = system: CAKI-1
UO-31 = system: UO-31
HCC 2998 = system: HCC 2998
IGROV-1 = system: IGROV-1
MDA-N = system: MDA-N
UACC-62 = system: UACC-62
SK-MEL-2 = system: SK-MEL-2
M14 = system: M14
OVCAR-8 = system: OVCAR-8
HT-29 = system: HT-29
A549 = system: A549
ACHN = system: ACHN
NCI-H23 = system: NCI-H23
T47D = system: T47D
SW-620 = system: SW-620
RPMI-8226 = system: RPMI-8226
SNB-19 = system: SNB-19
TK-10 = system: TK-10
HOP-62 = system: HOP-62
MOLT-4 = system: MOLT-4
OVCAR-5 = system: OVCAR-5
NCI-H226 = system: NCI-H226
KM12 = system: KM12
PC-3 = system: PC-3
LOX IMVI = system: LOX IMVI
OVCAR-4 = system: OVCAR-4
SF-295 = system: SF-295
UACC-257 = system: UACC-257
RXF 393 = system: RXF 393
SN12C = system: SN12C
SK-OV-3 = system: SK-OV-3
U-251 = system: U-251
CCRF-CEM = system: CCRF-CEM
HCT-116 = system: HCT-116
DU-145 = system: DU-145
SK-MEL-5 = system: SK-MEL-5
MDA-MB-435 = system: MDA-MB-435
EKVX = system: EKVX
NCI/ADR-RES = system: NCI/ADR-RES
SK-MEL-28 = system: SK-MEL-28
786-0 = system: 786-0
A498 = system: A498
SF-268 = system: SF-268
SF-539 = system: SF-539
SNB-75 = system: SNB-75
Hs-578T = system: Hs-578T
BT-549 = system: BT-549
Malme-3M = system: Malme-3M
MDA-MB-231 = system: MDA-MB-231
OVCAR-3 = system: OVCAR-3
K562 = system: K562
NCI-H460 = system: NCI-H460
NCI-H522 = system: NCI-H522

Compound: COC(=O)C1(NC(=O)C(CC(=O)OC(C)(C)C)NC(=O)OC(C)(C)C)CC1 (stereo unspecified) (Boc-[ξD](OtBu)-[Ac3c]-OMe)
- GI50 (COLO 205): > 100 µM (inactive)
- GI50 (HCT-15): > 100 µM
- GI50 (MCF7): > 100 µM (inactive)
- GI50 (CAKI-1): > 100 µM (inactive)
- GI50 (UO-31): > 100 µM (inactive)
- GI50 (HCC 2998): > 100 µM (inactive)
- GI50 (IGROV-1): > 100 µM (inactive)
- GI50 (MDA-N): > 100 µM (inactive)
- GI50 (UACC-62): 1.19 µM (inactive)
- GI50 (SK-MEL-2): > 100 µM (inactive)
- GI50 (M14): > 100 µM (inactive)
- GI50 (OVCAR-8): > 100 µM (inactive)
- GI50 (HT-29): > 100 µM (inactive)
- GI50 (A549): > 100 µM (inactive)
- GI50 (ACHN): > 100 µM (inactive)
- GI50 (NCI-H23): > 100 µM (inactive)
- GI50 (T47D): > 100 µM (inactive)
- GI50 (SW-620): > 100 µM (inactive)
- GI50 (RPMI-8226): > 100 µM (inactive)
- GI50 (SNB-19): > 100 µM (inactive)
- GI50 (TK-10): > 100 µM (inactive)
- GI50 (HOP-62): > 100 µM (inactive)
- GI50 (MOLT-4): > 100 µM (inactive)
- GI50 (OVCAR-5): > 100 µM (inactive)
- GI50 (NCI-H226): > 100 µM (inactive)
- GI50 (KM12): > 100 µM (inactive)
- GI50 (PC-3): > 100 µM (inactive)
- GI50 (LOX IMVI): > 100 µM (inactive)
- GI50 (OVCAR-4): > 100 µM (inactive)
- GI50 (SF-295): > 100 µM (inactive)
- GI50 (UACC-257): > 100 µM (inactive)
- GI50 (RXF 393): > 100 µM (inactive)
- GI50 (SN12C): > 100 µM (inactive)
- GI50 (SK-OV-3): 7.87 µM (inactive)
- GI50 (U-251): > 100 µM (inactive)
- GI50 (CCRF-CEM): > 100 µM (inactive)
- GI50 (HCT-116): > 100 µM (inactive)
- GI50 (DU-145): > 100 µM (inactive)
- GI50 (SK-MEL-5): > 100 µM (inactive)
- GI50 (MDA-MB-435): > 100 µM (inactive)
- GI50 (EKVX): > 100 µM (inactive)
- GI50 (NCI/ADR-RES): > 100 µM (inactive)
- GI50 (SK-MEL-28): > 100 µM (inactive)
- GI50 (786-0): > 100 µM (inactive)
- GI50 (A498): > 100 µM (inactive)
- GI50 (SF-268): > 100 µM (inactive)
- GI50 (SF-539): > 100 µM (inactive)
- GI50 (SNB-75): > 100 µM (inactive)
- GI50 (Hs-578T): > 100 µM (inactive)
- GI50 (BT-549): > 100 µM (inactive)
- GI50 (Malme-3M): > 100 µM (inactive)
- GI50 (MDA-MB-231): > 100 µM (inactive)
- GI50 (OVCAR-3): > 100 µM (inactive)
- GI50 (K562): > 100 µM (inactive)
- GI50 (NCI-H460): > 100 µM (inactive)
- GI50 (NCI-H522): > 100 µM (inactive)
